The target of test [1] is T1, B1 bradykinin receptor (Homo sapiens, UniProt P46663).
T1 sequence (P46663 whole entry): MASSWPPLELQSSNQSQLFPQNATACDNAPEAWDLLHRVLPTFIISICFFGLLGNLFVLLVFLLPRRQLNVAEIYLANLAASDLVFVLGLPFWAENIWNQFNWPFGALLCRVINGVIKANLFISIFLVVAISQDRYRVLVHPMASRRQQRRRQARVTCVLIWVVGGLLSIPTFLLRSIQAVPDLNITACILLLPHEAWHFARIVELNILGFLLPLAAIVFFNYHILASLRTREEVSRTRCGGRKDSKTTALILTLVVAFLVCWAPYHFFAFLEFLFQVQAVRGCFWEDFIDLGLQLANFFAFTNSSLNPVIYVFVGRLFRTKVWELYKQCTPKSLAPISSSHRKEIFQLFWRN
As to the kind of experiment: Binding Assay: Binding assay using Bradykinin-1 receptor.

In test [2] the target is T1, B1 bradykinin receptor. As to the kind of experiment: Calcium Mobilization Assay: Calcium mobilization assay using Bradykinin-1 receptor. Type of test: functional. In general terms: Calcium assays in cells follow changes in intracellular calcium, usually with a dye or a luminescent sensor.

By Ki is commonly meant the equilibrium dissociation constant of an inhibitor or competing ligand from its target. Low values mean higher affinity, high ones lower affinity. For orientation: IC50 means the concentration that gives 50% inhibition. In test [1], `Cc1nc(-c2c(F)cc(Cl)cc2-c2ccc3c(c2)CC[C@@H]3NC(=O)C2(NC(=O)c3nnc(C)o3)CC2)no1` registered a Ki of 9.5 nM. Moreover, in test [2], the half-maximal inhibitory concentration (IC50) turned out to be 3.4 nM.

For the origin of these results see ChEMBL document CHEMBL3639075, “Aryl-benzocycloalkyl amide derivatives” (2013).
